In PMC8536575, “Acute effects of the imidacloprid metabolite desnitro-imidacloprid on human nACh receptors relevant for neuronal signaling” (Archives of Toxicology, 2021):

How the values were obtained:
nAChRs on LUHMES neurons [1] = assay: High-throughput Ca2+-imaging of LUHMES neurons (agonist effect); format: cell-based, human
Procedure: For Ca^2+-imaging, the cells were pre-differentiated for 48 h in cell culture flasks, detached and plated at a density of 20,000 cells and 30,000 cells per well on 0.1% PEI-coated 384-well and 96-well plates (Greiner Bio-One), respectively, for the Ca^2+-imaging. The cells were further differentiated for another 7 days. 50% of the medium was exchanged every 2–3 days.
(§1) Ca^2+-imaging was performed using HT Functional Drug Screening System FDSS/µCELL (Hamamatsu Photonics) at nominal 37 °C. The FDSS/µCell system enables the indirect recording of changes of [Ca^2+]i via a Ca^2+-sensitive fluorescent dye. The fluorescence signal of a complete 384-well plate is acquired at once with a high-speed and high-sensitivity digital ImagEM X2 EM-CCD camera (Electron Multiplying Charge-Coupled Device, Hamamatsu Photonics), but with limited spatial resolution. Therefore, the software only determines the mean fluorescence signal of each well rather than of individual cells. For compound application, the integrated dispenser head with 384 pipette tips was used, which can add the test compound to all wells simultaneously. Cells were preincubated with Cal-520 AM (AAT Bioquest) at a concentration of 1 µM for 1 h at 37 °C. For recording, the medium was exchanged by a buffer solution containing [mM]: 135 NaCl, 5 KCl, 0.2 MgCl2, 2.5 CaCl2, 10 HEPES, and 10 D-glucose, pH 7.4. Test compound application was executed after obtaining a 1.5 min baseline recording. Where applicable, a second application was executed 4.5 min after the first application. The total recording never exceeded 8 min.
(§2) For the high-throughput Ca^2+-imaging data obtained in LUHMES cells, an offset correction using the FDSS software (version 3.2) was performed. Afterward, the data were exported and further analyzed with scripts written in R (version 3.6.3) (R Core Team [2020]). The concentration–response curves were fitted using a log-logistic model described by Ritz et al. ([2015]), utilizing the R package drc with its function drm() and LL2.2() with the following equation: f(x) = d/[1 + exp(b(log(x) − ẽ))] (Ritz et al. [2015]). The logarithm of the half-maximal effective concentration (logEC50) between 0 and the upper limit (d), which was set to 1, is represented by ẽ, x denotes the concentration, and b stands for the slope parameter (Ritz et al. [2015]). In cases with normalizations to responses induced by other compounds, the function LL2.3() was used with a variable upper limit (d; Ritz et al. [2015]). The same equation was used to determine the half-maximal inhibitory concentration (logIC50). Then the logEC50 and logIC50 values were converted into the pIC50 and pEC50 values, which are the negative logarithms to base 10.

mice = conditions: ref Chao and Casida [1997], cited from earlier work
human α7 nAChR = target: T1, human α7 nAChR (Homo sapiens, UniProt P36544); assay: Two-electrode voltage-clamp recordings, Xenopus laevis oocytes expressing human α7 nAChR; format: cell-based; conditions: for inward currents: tested up to 100 µM range
T1 construct: expressed in transfected cells; host or cells: Xenopus laevis oocytes, injection of 30 ng mRNA (pCDNA3.1, T7 transcript)
T1 sequence (P36544 23-502): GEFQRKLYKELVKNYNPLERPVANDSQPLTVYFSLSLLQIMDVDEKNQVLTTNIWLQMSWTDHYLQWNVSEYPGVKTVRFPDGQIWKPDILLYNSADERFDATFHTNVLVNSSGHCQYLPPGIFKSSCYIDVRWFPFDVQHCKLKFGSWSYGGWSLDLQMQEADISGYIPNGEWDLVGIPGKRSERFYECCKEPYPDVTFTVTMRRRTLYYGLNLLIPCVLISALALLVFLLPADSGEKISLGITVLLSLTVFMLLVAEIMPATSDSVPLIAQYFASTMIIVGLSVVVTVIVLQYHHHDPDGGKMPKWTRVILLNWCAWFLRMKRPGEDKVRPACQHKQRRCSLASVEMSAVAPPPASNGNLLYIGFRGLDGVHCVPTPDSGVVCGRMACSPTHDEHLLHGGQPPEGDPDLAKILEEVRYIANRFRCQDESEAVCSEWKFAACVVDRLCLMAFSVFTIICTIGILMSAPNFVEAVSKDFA

nAChRs on LUHMES neurons [2] = assay: Desensitization of nAChR agonist-evoked [Ca2+]i responses of LUHMES neurons; format: cell-based, human; conditions: pretreatment […], 3 µM nicotine
Procedure: as §1, §2
Fig. 4 Desensitizing effects of DN-IMI and IMI-olefin on nAChRs. LUHMES neurons differentiated in 384-well plates were pretreated with various concentrations of DN-IMI or IMI-olefin for 4.5 min before different nAChR agonists were applied and [Ca^2+]i signals were recorded. […] Note the treatment scheme (upper right corner), illustrating the experimental design. […] Note the treatment scheme (upper right corner), illustrating the experimental design. Detailed data on n numbers are found in Table S6

nAChRs on LUHMES neurons [3] = assay: Inhibition of DN-IMI-evoked [Ca2+]i responses of LUHMES neurons by nAChR antagonists; format: cell-based, human; conditions: for pIC50 for inhibition of DN-IMI-induced [Ca2+]i response: antagonist pretreatment, DN-IMI 0.5 µM
Procedure: as §1, §2
LUHMES neurons differentiated in 384-well plates were pretreated with various concentrations of nAChR antagonists before DN-IMI (0.5 µM) was applied in Ca^2+-imaging experiments. […] Note the treatment scheme (upper right corner), illustrating the experimental design. […] Detailed data on n numbers are found in Table S6

human α3β4 nAChR = target: T2, human α3β4 nAChR (Homo sapiens, UniProt P30926+P32297); assay: Two-electrode voltage-clamp recordings, Xenopus laevis oocytes expressing human α3β4 nAChR; format: cell-based
T2 construct: expressed in transfected cells; host or cells: Xenopus laevis oocytes, mRNA injection, 0.33 ng α3 and 3.33 ng β4
T2 sequence (P32297 32-505): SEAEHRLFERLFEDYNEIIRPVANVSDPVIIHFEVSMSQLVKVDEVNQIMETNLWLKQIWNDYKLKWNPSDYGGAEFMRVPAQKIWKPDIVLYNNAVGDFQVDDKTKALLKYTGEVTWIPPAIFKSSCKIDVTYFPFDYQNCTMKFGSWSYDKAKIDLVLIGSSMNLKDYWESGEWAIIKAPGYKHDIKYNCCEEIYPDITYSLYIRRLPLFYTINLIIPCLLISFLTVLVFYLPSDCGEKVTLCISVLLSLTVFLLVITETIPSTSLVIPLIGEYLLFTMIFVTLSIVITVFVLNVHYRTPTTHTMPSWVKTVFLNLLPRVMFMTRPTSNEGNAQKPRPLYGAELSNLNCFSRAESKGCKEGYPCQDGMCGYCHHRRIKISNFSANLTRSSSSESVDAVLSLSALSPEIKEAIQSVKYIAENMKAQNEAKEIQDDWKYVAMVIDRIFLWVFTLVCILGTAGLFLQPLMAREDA
T2 sequence (P30926 22-498): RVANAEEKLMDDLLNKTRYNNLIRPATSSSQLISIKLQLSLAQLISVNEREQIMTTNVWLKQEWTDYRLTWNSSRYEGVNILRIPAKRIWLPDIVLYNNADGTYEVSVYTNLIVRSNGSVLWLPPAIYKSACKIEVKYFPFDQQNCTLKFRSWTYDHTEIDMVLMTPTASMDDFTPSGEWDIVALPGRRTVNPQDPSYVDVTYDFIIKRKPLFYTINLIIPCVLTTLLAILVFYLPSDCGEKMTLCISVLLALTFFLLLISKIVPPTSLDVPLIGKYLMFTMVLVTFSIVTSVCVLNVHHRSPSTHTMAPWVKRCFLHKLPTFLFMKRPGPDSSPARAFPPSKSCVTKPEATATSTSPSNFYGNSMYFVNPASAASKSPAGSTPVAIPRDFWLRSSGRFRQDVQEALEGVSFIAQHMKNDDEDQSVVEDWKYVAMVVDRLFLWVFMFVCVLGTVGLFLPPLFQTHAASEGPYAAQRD

nAChRs on LUHMES neurons [4] = tested on: nAChRs on LUHMES neurons; design: method as in Loser et al. [2021a]; conditions: ref Loser et al. [2021a]; cited from earlier work
human α4β2 (HS) nAChR = target: T3, human α4β2 (HS) nAChR (Homo sapiens, UniProt P17787+P43681); assay: Two-electrode voltage-clamp recordings, Xenopus laevis oocytes expressing human α4β2 (HS) nAChR; format: cell-based
T3 construct: expressed in transfected cells; host or cells: Xenopus laevis oocytes (EcoCyte Bioscience), mRNA injection, 3 ng α4 and 30 ng β2
T3 sequence (P43681 27-627): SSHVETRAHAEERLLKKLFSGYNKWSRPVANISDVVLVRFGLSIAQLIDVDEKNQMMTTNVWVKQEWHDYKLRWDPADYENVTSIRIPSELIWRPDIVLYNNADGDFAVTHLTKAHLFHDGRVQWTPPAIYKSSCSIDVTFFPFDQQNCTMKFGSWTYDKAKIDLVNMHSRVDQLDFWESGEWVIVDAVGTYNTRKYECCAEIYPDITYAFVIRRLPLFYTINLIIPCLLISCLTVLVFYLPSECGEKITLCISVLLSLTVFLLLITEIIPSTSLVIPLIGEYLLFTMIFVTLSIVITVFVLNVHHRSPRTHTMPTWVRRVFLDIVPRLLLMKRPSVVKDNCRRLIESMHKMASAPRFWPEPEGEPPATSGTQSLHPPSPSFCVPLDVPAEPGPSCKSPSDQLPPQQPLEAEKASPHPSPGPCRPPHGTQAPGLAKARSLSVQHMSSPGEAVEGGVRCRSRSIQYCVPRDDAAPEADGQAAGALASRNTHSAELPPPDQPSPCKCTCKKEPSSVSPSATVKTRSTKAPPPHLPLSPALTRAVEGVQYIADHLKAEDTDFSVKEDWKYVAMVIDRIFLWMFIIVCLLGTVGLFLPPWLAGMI
T3 sequence (P17787 26-502): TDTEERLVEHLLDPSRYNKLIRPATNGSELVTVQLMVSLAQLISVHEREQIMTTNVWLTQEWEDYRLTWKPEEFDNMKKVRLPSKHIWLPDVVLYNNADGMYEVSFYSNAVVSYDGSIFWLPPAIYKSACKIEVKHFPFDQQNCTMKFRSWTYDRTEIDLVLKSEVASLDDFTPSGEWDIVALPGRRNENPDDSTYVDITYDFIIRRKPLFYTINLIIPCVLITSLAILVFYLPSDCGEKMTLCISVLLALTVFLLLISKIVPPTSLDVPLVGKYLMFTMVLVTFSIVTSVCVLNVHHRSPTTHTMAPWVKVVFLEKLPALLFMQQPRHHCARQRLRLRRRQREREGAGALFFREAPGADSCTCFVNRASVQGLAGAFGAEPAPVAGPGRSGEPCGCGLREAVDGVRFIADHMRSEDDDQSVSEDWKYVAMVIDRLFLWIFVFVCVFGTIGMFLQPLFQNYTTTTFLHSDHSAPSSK

nAChRs on SH-SY5Y cells = assay: Inhibition of DN-IMI-evoked [Ca2+]i response of SH-SY5Y cells by mecamylamine; format: cell-based, human; conditions: Mec 125 µM, presence of PNU (10 µM)
human α3β2 nAChRs = tested on: human α3β2 nAChRs; design: method as in Chavez-Noriega et al. [2000]; conditions: ref Chavez-Noriega et al. [2000]; cited from earlier work
human α4β4 nAChR = target: T4, human α4β4 nAChR (Homo sapiens, UniProt P30926+P43681); assay: Two-electrode voltage-clamp recordings, Xenopus laevis oocytes expressing human α4β4 nAChR; format: cell-based; conditions: tested concentration range ≤ 100 µM
T4 construct: expressed in transfected cells; host or cells: Xenopus laevis oocytes, mRNA injection, 3.33 ng α4 and 3.33 ng β4
T4 sequence (P43681 27-627): as the sequence (P43681 27-627) above
T4 sequence (P30926 22-498): as the sequence (P30926 22-498) above
Excerpt: (§3) The human α7 nAChR subunit was cloned in the pCDNA3.1 vector.
(§4) For the generation of the mRNA for injection, the plasmid DNAs of α3, α4, β2, and β4 were linearized with the NotI restriction endonuclease (New England Biolabs) and the plasmid DNA of α7 was linearized with the XbaI restriction endonuclease (New England Biolabs). The mRNAs of α3, α4, β2, and β4 were generated by in vitro transcription using the mMESSAGE mMACHINE SP6 Transcription Kit (Invitrogen). For the generation of α7 mRNA, the mMESSAGE mMACHINE T7 Transcription Kit (Invitrogen) was used. For the separation of the DNA and mRNA, a phenol–chloroform extraction (Chomczynski and Sacchi [2006]) was performed. The mRNA was then obtained by ethanol precipitation from the aqueous phase; for quantification, the BioPhotometer (Eppendorf) was used.
(§5) The recordings of human α7, α3β4, α4β2, and α4β4 nAChRs expressed in Xenopus laevis oocytes (EcoCyte Bioscience) were performed in two-electrode voltage-clamp mode using the Roboocyte2 system and the corresponding software (version 1.4.1; Multi Channel Systems MCS). Prior to the recordings, the oocytes were maintained at 19 °C in modified Barth’s solution containing [mM]: 88 NaCl, 1 KCl, 0.33 Ca(NO3)2, 0.82 MgSO4, 2.4 NaHCO3, 0.41 CaCl2, 5 Tris, 100 U/ml penicillin, 100 µg/ml streptomycin, pH 7.4.
(§6) To express human α7 nAChR, we injected 50 nl of mRNA solution (30 ng mRNA) per oocyte, using the Roboinject and the corresponding software (version 1.2.1; Multi Channel Systems MCS). […]
(§7) The baseline correction of voltage-clamp oocyte recordings was performed with the Roboocyte2 + software (version 1.4.3; Multi Channel Systems MCS, Germany). The maximal current influx and further analysis were executed in scripts written in R. In the antagonist experiments with oocytes, the maximal inward current was determined for the last response of each period (control, three antagonist concentrations, and washout).

human α4β2 (LS) nAChR = target: T5, human α4β2 (LS) nAChR (Homo sapiens, UniProt P17787+P43681); assay: Two-electrode voltage-clamp recordings, Xenopus laevis oocytes expressing human α4β2 (LS) nAChR; format: cell-based; conditions: tested concentration range ≤ 100 µM
T5 construct: expressed in transfected cells; host or cells: Xenopus laevis oocytes, mRNA injection, 10 ng α4 and 1 ng β2
T5 sequence (P43681 27-627): as the sequence (P43681 27-627) above
T5 sequence (P17787 26-502): as the sequence (P17787 26-502) above
Excerpt: as §3, §4, §5, §6, §7

in vitro = conditions: human, hepatocytes
Excerpt: Renal clearance for DN-IMI was assumed to be governed only by passive processes, with both filtration and passive reabsorption being accounted for. Passive permeability was scaled from the predicted permeability in the intestine (Peff 0.37 10-4 cm/s) accounting for the surface area of the proximal tubules in the kidney.

[5] = from curve-fitted concentration–response data

SMILES: O=[N+]([O-])Nc1nccn1Cc1ccc(Cl)nc1 [IMI-olefin, imidacloprid-olefin]
- pEC50 of [Ca2+]i response (peak amplitude) (nAChRs on LUHMES neurons [1]; LUHMES neurons, absence of PNU, normalized to the maximal response stimulated by DN-IMI, tested ≤ 100 µM): not reached within the measurement range
- pEC50 of [Ca2+]i response in the presence of PNU (nAChRs on LUHMES neurons [1]; PNU 10 µM, normalized to maximal response to IMI-olefin in presence of PNU): 5.5
- response as % of the maximal response to DN-IMI (nAChRs on LUHMES neurons [1]; at 30–100 µM): around 15%
- lethality (mice; highest tested dose of 50 mg/kg): no lethality
- inward currents (human α7 nAChR): significant inward currents but with a lower potency and efficacy than DN-IMI
- pIC50 for desensitization of the nicotine-evoked response (nAChRs on LUHMES neurons [2]): 4.9

SMILES: CC[N+](CC)(CC)CCOc1ccc(/C=C/c2ccccc2)cc1 [MG 624]
- pIC50 for inhibition of DN-IMI-induced [Ca2+]i response (nAChRs on LUHMES neurons [3]): 6.8 ± 0.03

SMILES: COc1cc2c3cc1Oc1cc(ccc1O)C[C@@H]1c4c(cc(OC)c(O)c4Oc4ccc(cc4)C[C@@H]3N(C)CC2)CC[N+]1(C)C [Tubo, (+)-Tubocurarine chloride pentahydrate]
- pIC50 for inhibition of DN-IMI-induced [Ca2+]i response (nAChRs on LUHMES neurons [3]): 5.9
- block of DN-IMI-evoked response (nAChRs on LUHMES neurons [3]; at 100 µM): completely blocked
- block of DN-IMI-triggered inward current (human α3β4 nAChR; DN-IMI 30 µM): concentration-dependently and reversibly blocked

SMILES: CCN1C[C@]2(COC(=O)c3ccccc3N3C(=O)C[C@H](C)C3=O)CC[C@H](OC)[C@@]34[C@@H]5C[C@H]6[C@H](OC)[C@@H]5[C@](O)(C[C@@H]6OC)[C@@](O)([C@@H](OC)[C@H]23)[C@@H]14 [MLA, Methyllycaconitine, reference compound]
- pIC50 for inhibition of DN-IMI-induced [Ca2+]i response (nAChRs on LUHMES neurons [3]): 6.8 ± 0.03
- block of DN-IMI-triggered inward current (human α7 nAChR; DN-IMI 30 µM): concentration-dependently and reversibly blocked

SMILES: CN1CCC[C@H]1c1cccnc1 [nicotine, (-)-Nicotine, reference compound]
- pEC50 in LUHMES neurons (nAChRs on LUHMES neurons [4]): ~ 6.0
- higher potency on α4β2 (HS) nAChR than on other subtypes (human α4β2 (HS) nAChR; comparison of EC25 values, α4β2 (HS) vs α7 and α3β4): > 2 log-step
- absolute EC25 (human α4β2 (HS) nAChR; [5]): 0.17 µM
- absolute EC25 (human α7 nAChR; [5]): 30.2 µM
- estimated maximum (human α7 nAChR; normalized to nicotine (1 mM)): ~ 1
- absolute EC25 (human α3β4 nAChR; [5]): 27.5 µM
- estimated maximum (human α3β4 nAChR; normalized to nicotine (1 mM)): ~ 1

SMILES: CNC1(C)C2CCC(C2)C1(C)C (stereo not shown) [Mec, Mecamylamine]
- pIC50 for inhibition of DN-IMI-induced [Ca2+]i response (nAChRs on LUHMES neurons [3]): 6.8 ± 0.03
- block of DN-IMI-induced [Ca2+]i response in SH-SY5Y (nAChRs on SH-SY5Y cells): strongly blocked
- block of DN-IMI-triggered inward current (human α4β2 (HS) nAChR; DN-IMI 1 µM): concentration-dependently and reversibly blocked
- pIC50, literature data for human α3β2 nAChRs (human α3β2 nAChRs): 6.6

SMILES: CC(=O)OCC[N+](C)(C)C [ACh, Acetylcholine chloride]
- pEC50 in LUHMES neurons (nAChRs on LUHMES neurons [4]): ~ 6.0

SMILES: O=[N+]([O-])NC1=NCCN1Cc1ccc(Cl)nc1 [IMI, imidacloprid]
- activation of the receptor (human α4β4 nAChR): did not trigger a concentration-dependent activation
- LD50 (mice; Tomizawa et al. [2000], [2001]): 35 to 50 mg/kg
- activation of the receptor (human α4β2 (HS) nAChR; tested concentration range ≤ 100 µM): did not trigger a concentration-dependent activation
- inward currents (human α7 nAChR): significant inward currents but with a lower potency and efficacy than DN-IMI
- inward currents (human α3β4 nAChR; concentration-dependent, up to 100 µM): small but significant inward currents
- activation of the receptor (human α4β2 (LS) nAChR): did not trigger a concentration-dependent activation

SMILES: C[C@]12C=CC(=O)C=C1CC[C@@H]1[C@@H]2[C@@H](O)C[C@@]2(C)[C@H]1CC[C@]2(O)C(=O)CO [prednisolone, reference compound]
- hepatocyte CLint (in vitro): 379 µL/min/1e6 cells
